What was measured:
[1] = system: chromosomes of plasma cells; test: Incorporation of labeled ctDNA into chromosomes with NHEJ, PARP and integrase inhibitors (Example 6); assay type: cell-based, human; conditions: DNA-PKCS inhibitor I 200 nM; KU-55933; raltegravir 30 nM; NU1025 200 nM
Description: For further evaluation, chromosome spreads from MM and lung cancer cell lines were cultured with covalently labeled ctDNA obtained from patients with MM.

[2] = system: MM (MM1S), PC (ASPC-1), and CC (HCT 116) cell lines; test: ctDNA integration with NHEJ, alternative pathway and transposase inhibitors (Example 25); assay type: cell-based, human; conditions: 2 hours pretreatment; DNA-PKCS inhibitor I 30 μM, KU-55933 10 μM, raltegravir 100 nM; compared to control or NU1025 200 μM
Description: About 10^6 MM1s, PANC1 and HCT-116 cells were treated for 2 hours with inhibitors of the non-homologous end join (NHEJ) repair system such as KU-55933 (ATM inhibitor, 10 μM) and DNA-PKCS inhibitor I, (30 μM), alternative repair pathway such as a poly ADP ribose polymerase inhibitor NU1025 (PARP, 200 μM) and an integrase/transposase inhibitor (raltegravir, 100 nM). After treatment with inhibitors, rhodamine-labeled ctDNA construct was added to the culture media for 24 hours. Cells were then arrested, and chromosome spreads were obtained as noted above. Integration site counts per cell were obtained after counting a minimum of 20 metaphases (FIG. 32).
Transposable elements (TEs) can play an important role in the mechanism of HGT observed in prokaryotes and few cases of eukaryotes (insects and plants). Thus, it was investigated whether inhibition of transposable elements could reduce or prevent ctDNA integration into chromatids. To that end, cells were treated for 2 hours with raltegravir, a transposase inhibitor, before the addition of ctDNA into culture media. For controls, inhibitors of ATM (KU-55933), DNPkc (DNA-PKCS inhibitor I) and PARP (NU1025) were used. […]

Structure (SMILES) | Incorporation of labeled ctDNA into chromosomes [1] | integration of ctDNA (rhodamine bands into the chromosomes) [2]
Cc1nc2c(O)cccc2c(=O)[nH]1 [NU1025] | less so | –
O=c1cc(-c2cccc3c2Sc2ccccc2S3)oc(N2CCOCC2)c1 [KU-55933] | reduced significantly | significantly reduced
Cc1nnc(C(=O)NC(C)(C)c2nc(C(=O)NCc3ccc(F)cc3)c(O)c(=O)n2C)o1 [raltegravir] | reduced significantly | significantly reduced

From US12453740B2, “Nucleic acids for cell recognition and integration” (Emory University, priority 2018, dated 2025)
